One substance from patent publication US20020086278A1, “CHROMOGENIC MEDIA CONTAINING BLOOD OR HEMIN” (priority 1999, published 2002) can be followed below.

The test system of one assay is S. epidermidis 12228. Put plainly: Example 1: growth and colony color on plates surface-spread with chromogen. The format is cell-based. Particulars: Summary of Table I; S. epidermidis 12228.
The subject of assay [1] is Staphylococcus aureus 25923. The description is as above. Format: cell-based. Conditions: S. aureus 25923.
The test system of assay [2] is Streptococcus pneumoniae 6303. Described as above. Format: cell-based.
In assay [3] the test system is Branhamella catarrhalis 25238. The description is as above. The format is cell-based. Conditions: for Growth: B. catt 25258.
For a further assay, the system named is Group B Strep. 12386. Described as above. Format: cell-based. Conditions: for Growth: Group B Strep 12386.
A further assay concerns N. gonorrhoeae 35201. The assay is described as above. The format is cell-based. Particulars: Summary of Table I; N. gonorrhoeae 35201.
For assay [4], the system named is Gardnerella vaginalis 14019. The description is as above. Format: cell-based. Particulars: Summary of Table I; G. vaginalis 14014.
Assay [5] relates to N. sicca 29193. The description is as above. The format is cell-based.
The test system of another assay is S. aureus 25923. Put plainly: Example 2: effect of incubation conditions on colony color formation. Format: cell-based, Staphylococcus aureus.
Assay [6] deals with N. sicca 29193. Described as above. The format is cell-based.
Assay [7] concerns bacterial test strains of Example 1. Put plainly: Example 1: inhibitory effect over all test strains. The format is cell-based. Conditions: Example 1, all test strains.

Turning to 5-Br-4-Cl-3-indolyl-caprylate [X-Cap], the “Substrates Producing Growth Inhibition” value in the assay with S. epidermidis 12228 is on record as “X-Cap”; in [2] (Summary of Table I, S. pneumoniae 6303), “X-Cap”; in assay [3] (Summary of Table I, B. catarrhalis 25238) it was “X-Cap”; in the assay with Group B Strep. 12386 (Summary of Table I, Group B Strep. 12386), “Slight inhib. w/ X-”; in the assay with N. gonorrhoeae 35201 it was “X-Cap”; in assay [4], “X-Cap”. Further, the Color result is on record as “turquoise” in assay [1] (Choc II); “turquoise” in [1] (TSA II 5SB); “turquoise” in [1] (TSA Plain); “blue” in the assay with N. sicca 29193 [5] (Substrate on Choclate II Agar, N. sicca. 29193). Moreover, the “Substrates Producing Color” value in assay [1] (Summary of Table I) is listed as “X-Cap”; in the assay on N. sicca 29193 [5] (Summary of Table I, N. sicca 29193) it was “X-cap”. Besides, the Growth result in assay [2] (TSA II 5SB, S. pneu: 6303) is “<”; in [3] (Choc II), “<”; in assay [3] (TSA II 5SB), “<”; in the assay with Group B Strep. 12386 (Choc II), “<<”; in the assay with Group B Strep. 12386 (TSA II 5SB) it was “<”. Further, the results for the Colony Color result with S. aureus 25923 and in the assay with N. sicca 29193 [6] were “blue (l)” and “blue (m)”, respectively. Further, the Inhibitory effect entry in [7] is given as “most inhibitory effect”.
